Entries after “also recorded” stand apart in the source; their conditions may differ.

A word on the Km: it is the concentration of substrate that gives half-maximal velocity. One may read the Kd as the concentration at which binding is half-saturated. For orientation: IC50 means the concentration that inhibits the measured activity by half. A high value points to weaker potency.

Experiment [1] has as its target T1, DAPK1 (Homo sapiens, UniProt P53355).
T1 construct: First the catalytic domain of DAPK1 (residues 1–285) was cloned,[14] expressed in Escherichia coli, and purified; made in house; host or cells: Escherichia coli
Put plainly: Caliper microfluidics capillary electrophoresis high-throughput enzymatic assay for DAPK1. The format is biochemical.
From the text: For this, we established a high-throughput enzymatic screening assay for DAPK1. […] This peptide was used in a Caliper microfluidics capillary electrophoresis assay, which separates phosphorylated peptide product from the non-phosphorylated peptides in microcapillaries. The fluorescently labeled peptide enabled quantification in real time and thus determination of reaction velocities.

In experiment [2] the target is T1, DAPK1. Put plainly: In vitro phosphorylation assay with DAPK1 (analytical HPLC). Particulars: for phosphorylation by DAPK1 (peptide as substrate): peptide 50 μM, ATP 100 μM, n=3. Type of experiment: biochemical. The text has this: CaMKII and DAPK1 share a number of notable structural and functional properties. In particular both kinases harbor a calmodulin-binding sequence and an autoregulatory domain (ARD) next to the catalytic domain and are therefore regulated by calmodulin (or proteins with calmodulin-like domains).[10] There are also notable differences between the two kinases, for example DAPK1 is active only in its non-phosphorylated form,[11] whereas activation of CaMKII is more complex.[12] […] Thus it is proposed that phosphorylation of Ser1303 and co-localization are responsible for the regulation of calcium influx by NMDA receptors (Figure 1). To investigate the mechanistic details of DAPK1/NMDA receptor interactions further, including differences between GluN2A and GluN2B, we used in vitro phosphorylation assays. First the catalytic domain of DAPK1 (residues 1–285) was cloned,[14] expressed in Escherichia coli, and purified; the reference substrate Peptide38[2d] ([…]) and the 13-mer peptide N2B13 (1, GluN2B1292–1304, […]; Figure 2 A) were prepared. […] Thus, clearly Ser1303 in 1 is not phosphorylated by DAPK1 in vitro.
(§1) Figure 2 Comparison of peptide substrates containing Ser1303 (GluN2B) or Ser1291 (GluN2A). A) Alignment of peptides used in in vitro phosphorylation studies. B) Phosphorylation by DAPK1. C) Phosphorylation by CaMKII. Control substrates are shown with dashed lines. Degrees of phosphorylation were assessed by analytical HPLC (n=3, mean±SD). Concentration: peptide 50 μM, ATP 100 μM, kinase concentration was adjusted to fit the timescale. For further details see the Supporting Information.
(§2) This prompted us to examine related peptides derived from GluN2B and GluN2A (Figure 2 A) and we compared in vitro phosphorylation of these peptides by using both recombinant DAPK1 and CaMKII. […] Next we studied the corresponding 13- and 23-mer GluN2A peptides, N2A13 (4, GluN2A1280–1292, […]) and N2A23 (5, GluN2A1280–1302, […]); for both, Ser1291 corresponds to Ser1303 in GluN2B.

The test system of experiment [3] is CAMKII. Put plainly: In vitro phosphorylation assay with CaMKII (analytical HPLC). Particulars: peptide 50 μM, ATP 100 μM, n=3. Type of experiment: biochemical. How it is done: as §1, §2
Experiment [4] addresses T2, catalytic domain of DAPK1 (residues 1–285) (Homo sapiens, UniProt P53355).
T2 construct: First the catalytic domain of DAPK1 (residues 1–285) was cloned,[14] expressed in Escherichia coli, and purified; made in house; host or cells: Escherichia coli
Put plainly: Isothermal titration calorimetry (ITC). Type of experiment: binding. To be noted: n=4, read-out: equilibrium dissociation constant (Kd). The procedure:
(§3) Compound 6 was tested in primary screening against a number of other kinases (SRC, BLK, AKT3, JAK2, PAK4, PAK7, PIM1, PIM2, CAMKI, and CAMKII); 60 % inhibition at 10 μM compound was used as the cut-off limit. […] Thus 6 was clearly an interesting compound.
Figure 3 Representative ITC of the catalytic domain of DAPK1 (residues 1–285) into 6.
In general terms: Isothermal titration calorimetry measures the heat released or taken up as one component is titrated into another.

A further experiment concerns the target JAK2 (Homo sapiens, UniProt O60674). Put plainly: Kinase selectivity screening, JAK2. Type of experiment: biochemical. The procedure:
as §3

A further experiment has as its target PAK7 (Homo sapiens, UniProt Q9P286). Put plainly: Kinase selectivity screening, PAK7. The format is biochemical. The procedure: as §3
A further experiment deals with PIM1 (Homo sapiens, UniProt P11309). Put plainly: Kinase selectivity screening, PIM1. The format is biochemical. The procedure:
as §3

In the next experiment the target is SRC (Homo sapiens, UniProt P12931). Nature of the experiment: Kinase selectivity screening, SRC. Type of experiment: biochemical. The procedure: as §3
Chain of SRC (P12931 whole entry, species assumed): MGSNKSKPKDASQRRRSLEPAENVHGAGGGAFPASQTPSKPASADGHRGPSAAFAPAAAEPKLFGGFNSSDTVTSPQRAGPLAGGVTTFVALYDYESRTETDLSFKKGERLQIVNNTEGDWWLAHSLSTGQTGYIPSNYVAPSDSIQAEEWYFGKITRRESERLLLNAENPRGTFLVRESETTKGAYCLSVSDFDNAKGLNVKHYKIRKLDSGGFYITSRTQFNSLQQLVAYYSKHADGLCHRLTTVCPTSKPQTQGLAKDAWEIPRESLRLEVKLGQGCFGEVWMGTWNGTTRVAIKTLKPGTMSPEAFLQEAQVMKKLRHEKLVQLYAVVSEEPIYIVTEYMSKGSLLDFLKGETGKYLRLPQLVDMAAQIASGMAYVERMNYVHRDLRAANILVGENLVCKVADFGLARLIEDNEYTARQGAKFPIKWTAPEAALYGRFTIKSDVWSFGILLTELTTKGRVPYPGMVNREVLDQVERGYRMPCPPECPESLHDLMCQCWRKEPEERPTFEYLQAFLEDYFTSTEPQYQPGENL
Experiment [5] relates to CAMKII. Put plainly: Kinase selectivity primary screening, CAMKII. The format is biochemical. Particulars: 60 % inhibition at 10 μM compound as cut-off limit. The procedure: as §3

T1 sequence (P53355 1-285): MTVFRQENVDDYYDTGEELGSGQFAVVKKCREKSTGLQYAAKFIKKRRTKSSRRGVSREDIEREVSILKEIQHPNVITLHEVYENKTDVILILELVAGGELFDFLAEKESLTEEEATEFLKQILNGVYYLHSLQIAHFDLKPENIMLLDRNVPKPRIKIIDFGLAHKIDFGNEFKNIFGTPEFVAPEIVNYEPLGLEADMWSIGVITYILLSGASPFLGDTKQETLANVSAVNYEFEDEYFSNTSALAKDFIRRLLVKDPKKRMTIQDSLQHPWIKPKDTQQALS
Chain of PAK7 (Q9P286 whole entry, species assumed): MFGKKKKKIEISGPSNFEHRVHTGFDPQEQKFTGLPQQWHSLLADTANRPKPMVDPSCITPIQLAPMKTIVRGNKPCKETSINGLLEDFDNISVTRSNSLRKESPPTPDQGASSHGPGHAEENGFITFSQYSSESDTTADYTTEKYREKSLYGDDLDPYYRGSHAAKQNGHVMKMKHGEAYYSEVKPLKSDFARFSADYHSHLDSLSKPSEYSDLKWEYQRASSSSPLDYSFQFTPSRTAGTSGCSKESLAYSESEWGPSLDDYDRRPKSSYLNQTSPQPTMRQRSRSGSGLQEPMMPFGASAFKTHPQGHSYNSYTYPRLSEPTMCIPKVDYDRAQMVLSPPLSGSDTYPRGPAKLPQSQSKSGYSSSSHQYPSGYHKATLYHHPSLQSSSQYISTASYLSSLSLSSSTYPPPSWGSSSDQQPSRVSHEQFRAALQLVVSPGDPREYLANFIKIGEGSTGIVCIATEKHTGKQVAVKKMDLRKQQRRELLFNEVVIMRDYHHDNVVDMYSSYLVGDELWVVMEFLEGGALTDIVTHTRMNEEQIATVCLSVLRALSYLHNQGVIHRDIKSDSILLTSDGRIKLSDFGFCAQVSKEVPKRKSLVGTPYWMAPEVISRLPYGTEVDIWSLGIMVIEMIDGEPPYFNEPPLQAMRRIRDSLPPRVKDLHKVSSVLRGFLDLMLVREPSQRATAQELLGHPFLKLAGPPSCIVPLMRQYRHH
Chain of JAK2 (O60674 whole entry, species assumed): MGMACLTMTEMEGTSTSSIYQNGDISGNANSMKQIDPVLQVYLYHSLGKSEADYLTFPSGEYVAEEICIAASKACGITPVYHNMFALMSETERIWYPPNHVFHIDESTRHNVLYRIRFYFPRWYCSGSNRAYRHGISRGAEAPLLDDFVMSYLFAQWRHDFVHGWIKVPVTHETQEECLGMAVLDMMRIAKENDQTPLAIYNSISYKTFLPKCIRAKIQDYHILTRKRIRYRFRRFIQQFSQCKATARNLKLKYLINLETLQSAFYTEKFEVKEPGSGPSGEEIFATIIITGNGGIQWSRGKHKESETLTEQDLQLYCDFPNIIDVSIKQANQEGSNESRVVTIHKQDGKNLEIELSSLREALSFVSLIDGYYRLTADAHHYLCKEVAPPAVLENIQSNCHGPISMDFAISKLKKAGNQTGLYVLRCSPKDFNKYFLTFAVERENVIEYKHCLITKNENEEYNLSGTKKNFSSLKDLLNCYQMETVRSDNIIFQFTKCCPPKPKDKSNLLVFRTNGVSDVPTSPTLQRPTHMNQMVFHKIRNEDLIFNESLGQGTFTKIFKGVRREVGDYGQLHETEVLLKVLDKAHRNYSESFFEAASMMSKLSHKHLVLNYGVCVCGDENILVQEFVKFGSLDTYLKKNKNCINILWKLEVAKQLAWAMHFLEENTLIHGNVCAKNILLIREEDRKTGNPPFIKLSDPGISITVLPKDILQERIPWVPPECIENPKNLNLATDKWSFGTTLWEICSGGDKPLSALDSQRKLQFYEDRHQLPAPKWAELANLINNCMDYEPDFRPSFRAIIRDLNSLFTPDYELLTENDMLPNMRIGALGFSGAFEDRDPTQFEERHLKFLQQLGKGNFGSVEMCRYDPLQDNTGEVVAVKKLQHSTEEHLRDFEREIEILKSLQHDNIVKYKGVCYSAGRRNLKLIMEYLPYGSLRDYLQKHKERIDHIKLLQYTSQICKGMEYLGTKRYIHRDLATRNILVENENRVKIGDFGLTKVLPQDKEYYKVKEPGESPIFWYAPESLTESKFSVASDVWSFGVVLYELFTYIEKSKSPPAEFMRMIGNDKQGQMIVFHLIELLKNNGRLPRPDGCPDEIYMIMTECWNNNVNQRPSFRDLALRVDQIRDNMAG
Chain of PIM1 (P11309 whole entry, species assumed): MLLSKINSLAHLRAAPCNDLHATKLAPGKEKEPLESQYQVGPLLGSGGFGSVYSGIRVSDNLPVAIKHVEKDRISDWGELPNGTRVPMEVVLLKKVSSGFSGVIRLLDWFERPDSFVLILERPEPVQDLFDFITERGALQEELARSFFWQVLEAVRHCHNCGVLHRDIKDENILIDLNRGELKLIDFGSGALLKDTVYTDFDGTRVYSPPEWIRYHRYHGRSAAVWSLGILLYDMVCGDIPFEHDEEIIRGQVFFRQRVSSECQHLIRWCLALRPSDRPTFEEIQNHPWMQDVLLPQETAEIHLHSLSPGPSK
T2 sequence (P53355 1-285): as the sequence (P53355 1-285) above

For the compound `Nc1ncnc2c1ncn2[C@@H]1O[C@H](COP(=O)(O)OP(=O)(O)OP(=O)(O)O)[C@@H](O)[C@H]1O` [ATP], the Km at DAPK1 [1] (DAPK1, read-out: Km for ATP) is 1240 nM.

Regarding “QKNKLRISRQHSYDNIVDKPREL [Peptide 5, 23-mer GluN2A peptide]”, the “phosphorylation by DAPK1 (peptide as substrate)” value (“phosphorylation by DAPK1” below) in the experiment with DAPK1 [2] is reported as “none of these peptides was phosphorylated”. The “phosphorylation by CaMKII (peptide as substrate)” value (from here on “phosphorylation by CaMKII”) in the experiment on CAMKII [3] was “phosphorylated at a similar rate and to the same degree as the control peptide”.

On to `COc1cc(-c2ccc3ncc(-c4cccc(C(=O)NCCN(C)C)c4)n3n2)ccc1O` [Compound 6], for which the Kd in [4] came to 240 ± 90 nM. The “inhibition in the in vitro phosphorylation assay” value on DAPK1 [2] (DAPK1) was “showed inhibition”. In addition, the IC50 came out at 1800 nM on JAK2; 5.6 µM on PAK7; 1600 nM against PIM1; 150 nM against SRC; 247 nM against DAPK1 [1] (DAPK1, Caliper assay, 5FAM-Peptide38 substrate, ATP approximately 2×Km). Moreover, the primary screening entry in the experiment on CAMKII [5] is “did not to pass the primary screening”.

For the compound “KKNRKKNRNKLRRQHSYDTFVDLQKEE [Peptide 2, 23-mer GluN2B peptide with ten additional C-terminal amino acids]”, the “phosphorylation by DAPK1” value in the experiment with DAPK1 [2] is reported as “phosphorylation to a degree similar to that for the reference substrate”. Moreover, the “phosphorylation by CaMKII” value with CAMKII [3] is “neither the longer GluN2B peptide, N2B23 (2), nor its Ala mutant, 3, was phosphorylated”.

In the case of “KKRPQRRYSNVF [peptide38, reference compound]”, the “phosphorylation by DAPK1” value with DAPK1 [2] is on record as “excellent substrate”.

Consider “KKNRNKLRQHSY [Peptide 1, 13-mer peptide N2B13, GluN2B1292–1304]”, for which the “inhibitory effect on phosphorylation of peptide 2” value in the experiment with DAPK1 [2] (DAPK1, in vitro, data not shown) is listed as “no in vitro inhibitory effect; also recorded: did not observe any effect”. For the same compound, in the experiment with DAPK1 [2], the “phosphorylation by DAPK1” value is “strongly repressed”. Moreover, the “phosphorylation by CaMKII” value in the experiment with CAMKII [3] is on record as “phosphorylated in a similar manner”.

For “QKNKLRISRQHSY [Peptide 4, 13-mer GluN2A peptide]”, the “phosphorylation by DAPK1” value in the experiment with DAPK1 [2] is listed as “none of these peptides was phosphorylated”. The “phosphorylation by CaMKII” value in the experiment with CAMKII [3] was “phosphorylated at a similar rate and to the same degree as the control peptide”.

In the case of “KKNRKKNRNKLRRQHAYDTFVDLQKEE [Peptide 3, N2B23 with Ser1303 substituted with Ala]”, in the experiment with DAPK1 [2], the “phosphorylation by DAPK1” value was “prevented phosphorylation”. In addition, the “phosphorylation by CaMKII” value with CAMKII [3] is given as “neither the longer GluN2B peptide, N2B23 (2), nor its Ala mutant, 3, was phosphorylated”.

The values are drawn from publication PMC4431585, “Identification and Characterization of a Small-Molecule Inhibitor of Death-Associated Protein Kinase 1” (Chembiochem, 2014).
